Structures can show the parent of a compound that is named as a salt.
Assays:
[1] = target: pure MMP-2 enzyme (Homo sapiens, UniProt P08253); assay: Inhibition of pure MMP-2 enzyme; type: biochemical
[2] = test system: monocyte; assay: Monocyte penetration of Matrigel membranes; type: cell-based
Description: (§1) Matrix metalloproteinase-2 (MMP-2) secreted by cells into growth media was separated by gel electrophoresis into its distinct band. […] Concentrations of less than 10 microM of sodium salt of N,N′,N″-tri(dihydroxyphosphoryl methyl)-1,4,7-triazacyclononane inhibited monocyte penetration of Matrigel membranes.

[3] = test system: mice; assay: Acute intravenous toxicity in mice; type: in vivo; conditions: 4.0 mM/kg single intravenous dose
Procedure: (§2) This example illustrates the low in vivo toxicity of a representative ligand administer intravenously to mice.
(§3) This in vivo LD50 toxicity dose results in an instantaneous in vivo concentration which is orders of magnitude greater than the dose of this agent which inhibits mammalian cell replication in vitro (0.009 mM/L).

[4] = Acute intravenous toxicity in mice; type: in vivo; conditions: mouse, in vivo, 4 mM/kg, intravenous
Procedure: as §2, §3

[5] = test system: underarm odor; assay: Inhibition of underarm odor in human subjects; type: in vivo
Description: Human subjects applied a 30% aqueous solution of the neutral sodium salt of N,N′,N″-tri(dihydroxyphosphoryl methyl)-1,4,7-triazacyclononane in one axilla and a control aqueous solution in the other.

[6] = test system: HFF cells (human foreskin fibroblasts); assay: Inhibition of mammalian cell replication in vitro; type: cell-based
[7] = test system: BGM cells (a continuous cell line of monkey origin); assay: Inhibition of mammalian cell replication in vitro; type: cell-based
Procedure: Concentrations of this ligand of 0.009 mM/L inhibited the growth of both BGM cells (a continuous cell line of monkey origin) and HFF cells (human foreskin fibroblasts).

[8] = test system: Streptococcus Sobrinus; assay: Inhibition of cariogenic bacteria (MIC, RPMI medium); type: cell-based; conditions: read-out: minimum inhibitory concentration (MIC)
[9] = test system: Sprague Dawley rats; assay: Subacute toxicity, repeated intravenous doses in rats; type: in vivo; conditions: 0.05 millimoles per kg i.v. on 10 days
Description: Ten male Sprague Dawley rats 29 days old and weighing between 73.4 and 87.8 grams at the beginning of the experiment were randomized, employing the block stratification method, into two groups consisting of five rats each. On each of days 1, 2, 3, 6, 7, 8, 9, 10, 13 and 14 of the experiment one set of rats received an intravenous dose of N,N′,N″-tri(dihydroxyphosphoryl methyl)-1,4,7-triazacyclononane (Example 1C in U.S. Pat. No. 5,236,695) equal to 0.05 millimoles per kg of initial body weight (experimental group) while the other group received an equivalent volume of normal saline solution. The weights of the animals were recorded three times per week and the animals were sacrificed on the 28th day, major organs removed and weighed and tissues removed for microscopic examination.

[10] = test system: mature, nonreplicating cultures of HFF (human foreskin fibroblasts); assay: Toxicity toward nonproliferating mammalian cells in vitro; type: cell-based; conditions: 0.3 mM, maintenance media, five-day period of observation
[11] = test system: Trichophyton rubrum; assay: Inhibition of mycotic cell replication in vitro (MIC); type: cell-based
Procedure: (§4) N,N′,N″-tris(dihydroxyphosphorylmethyl)-1,4,7-triazacyclononane was prepared as described in Example 1C in U.S. Pat. No. 5,236,695. Studies were performed to determine its ability to inhibit growth of mycotic (fungal) organisms.
(§5) For Microsporum canis the minimum inhibitory concentration was 0.233 mM/L or less. For Candida albicans and Trichophyton rubrum the minimal inhibitory concentration was 2.33 mM/L. For Trichophyton mentagrophytes, Trichophyton tonsuras and Trichophyton violaceum the minimal inhibitory concentration was 23.3 mM/L.

[12] = test system: Trichophyton tonsuras; assay: as above; type: cell-based
Procedure: as §4, §5

[13] = test system: Candida albicans; assay: as above; type: cell-based
Procedure: as §4, §5

[14] = test system: Trichophyton mentagrophytes; assay: as above; type: cell-based
Procedure: as §4, §5

[15] = test system: Trichophyton violaceum; assay: as above; type: cell-based
Procedure: as §4, §5

[16] = test system: Microsporum canis; assay: as above; type: cell-based
Procedure: as §4, §5

[17] = test system: Pseudomonas aeruginosa; assay: Inhibition of bacterial replication in vitro (MIC); type: cell-based
Procedure: (§6) N,N′,N″-tris(dihydroxyphosphorylmethyl)-1,4,7-triazacyclononane was prepared as described in Example 1C in U.S. Pat. No. 5,236,695. Studies were performed to determine its ability to inhibit bacterial growth. For Streptococcus hemolyticus, Listeria monocytogenes, Enterobacter cloacae and Klebsiella pneumoniae the minimum inhibitory concentration was determined to be 0.15 mM/L. For Enterococcus fecalis, Pseudomonas aeruginosa and Acinobacter anitratus the minimum inhibitory concentration was determined to be 0.3 mM/L.

[18] = test system: Acinobacter anitratus; assay: Inhibition of bacterial replication in vitro (MIC); type: cell-based
Procedure: as §6

[19] = test system: Klebsiella pneumoniae; assay: Inhibition of bacterial replication in vitro (MIC); type: cell-based
Procedure: as §6

[20] = test system: Listeria monocytogenes; assay: Inhibition of bacterial replication in vitro (MIC); type: cell-based
Procedure: as §6

[21] = test system: Enterococcus fecalis; assay: Inhibition of bacterial replication in vitro (MIC); type: cell-based
Procedure: as §6

[22] = test system: Enterobacter cloacae; assay: Inhibition of bacterial replication in vitro (MIC); type: cell-based
Procedure: as §6

[23] = test system: Streptococcus hemolyticus; assay: Inhibition of bacterial replication in vitro (MIC); type: cell-based
Procedure: as §6

[24] = Chemical antioxidant properties, coupled oxidation of carotene and linoleic acid; type: physicochemical
Procedure: Antioxidant properties of N,N′,N″-tri(dihydroxyphosphoryl methyl)-1,4,7-triazacyclononane were evaluated employing the coupled oxidation of carotene and linoleic acid, using the method described in “Phenolic Antioxidants of Dried Soybeans,” Hammerschmidt, P. A., Praat, D. E., 1978, Journal of Food Sciences, vol. 43, pp. 556-559.

[25] = Cytotoxicity study in AIDS antiviral screen (soluble-formazan assay); type: cell-based; conditions: human, T4 lymphocytes
Procedure: (§7) The antiviral efficacy of N,N′,N″-tris(5-t-butyl-2-hydroxy-benzyl)-1,4,7-triazacyclononane against the AIDS virus was evaluated employing published methodology (see, “New Soluble-Formazin Assay for HIV-1 Cytopathic Effects: Application to High Flux Screening of Synthetic and Natural Products for AIDS-Antiviral Activity,” J. Natl. Cancer Inst. 81:577-586, 1989).

[26] = test system: AIDS virus; assay: Inhibition of AIDS virus replication (soluble-formazan assay for HIV-1 cytopathic effects); type: cell-based; conditions: Human immunodeficiency virus 1; read-out: EC50 (inhibition of the AIDS Virion)
Procedure: as §7

[27] = test system: 57 human cancer cell lines; assay: In vitro proliferation of 57 human cancer cell lines; type: cell-based; conditions: cell line groups compared
Procedure: The ability of N-methyl-N′,N″-bis(dihydroxyphorylmethyl)-1,4,7-triazacyclononane to inhibit proliferation of 57 human cancer cell lines in vitro was evaluated employing published methods as published in J. Natl. Cancer Inst., 83:757-766, 1991. The concentration of agent that caused 50% inhibition of cell replication relative to controls [Gl50] were determined. In one set of experiments the mean midpoint of Gl50 for all cell lines tested was (10)^−4.72 with a delta value of (10)^2.95 and a range of (10)^3.67.

[28] = target: T1, Matrix metalloproteinase-2 (MMP-2) secreted by cells (Homo sapiens, UniProt P08253); assay: MMP-2 inhibition after gel electrophoresis, incubation in developing medium; type: biochemical; conditions: MMP-2 band after gel electrophoresis
T1 construct: Matrix metalloproteinase-2 (MMP-2) secreted by cells into growth media; endogenous in cells
Description: as §1

[29] = test system: isolated working rat heart; assay: Ischemic/reperfused isolated working rat heart model
Procedure: Using the ischemic/reperfused isolated working rat heart model of Ferdinandy et al., Cardiovasc. […] Concentrations of this agent as high as 7.2 mM had no adverse effects on the heart either before or after hypoxia/reperfusion injury.

Sequence of pure MMP-2 enzyme (P08253 110-660): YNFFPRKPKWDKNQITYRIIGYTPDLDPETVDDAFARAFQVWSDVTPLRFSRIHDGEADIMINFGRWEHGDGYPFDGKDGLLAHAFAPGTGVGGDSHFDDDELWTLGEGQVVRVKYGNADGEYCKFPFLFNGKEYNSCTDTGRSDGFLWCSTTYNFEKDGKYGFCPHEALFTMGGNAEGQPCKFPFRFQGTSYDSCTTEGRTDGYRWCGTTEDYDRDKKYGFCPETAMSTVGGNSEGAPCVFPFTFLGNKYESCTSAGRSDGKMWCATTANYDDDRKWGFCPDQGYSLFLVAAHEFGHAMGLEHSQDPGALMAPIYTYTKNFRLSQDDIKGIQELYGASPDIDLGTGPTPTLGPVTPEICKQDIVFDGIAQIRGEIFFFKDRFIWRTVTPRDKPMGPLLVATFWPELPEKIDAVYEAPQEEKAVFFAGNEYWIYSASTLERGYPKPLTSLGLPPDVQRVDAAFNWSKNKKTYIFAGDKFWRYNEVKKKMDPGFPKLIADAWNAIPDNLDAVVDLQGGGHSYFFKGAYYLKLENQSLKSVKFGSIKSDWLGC
T1 sequence (P08253 110-660, species assumed): as the sequence (P08253 110-660) above

O=P(O)(O)CN1CCN(CP(=O)(O)O)CCN(CP(=O)(O)O)CC1 [sodium salt of N,N′,N″-tris-(dihydroxyphosphorylmethyl)-1,4,7-triazacyclononane]
IC50 [1]: < 10 µM | concentration that inhibited monocyte penetration of Matrigel membranes [2]: less than 10 microM | mice surviving for over 14 days [3]: Over 50% | LD50 [4]: > 4000 µmol/kg | subjective evaluation of underarm odor ([5]; 30% aqueous solution in one axilla, control aqueous solution in the other): less underarm odor in the treated axilla than in the control | duration of decreased underarm odor after a single application ([5]; 30% aqueous solution, single application): up to one week

O=C(O)CN(CCN(CC(=O)O)CC(=O)O)CCN(CC(=O)O)CC(=O)O [Diethylene triamine penta acetic acid, reference compound]
concentration that inhibited HFF cell growth [6]: 0.3 mM/L | concentration that inhibited BGM cell growth [7]: 0.075 mM/L

O=P(O)(O)CN1CCN(CP(=O)(O)O)CCN(CP(=O)(O)O)CC1 [N,N′,N″-tris(dihydroxyphosphorylmethyl)-1,4,7-triazacyclononane]
MIC [8]: < 20 µM | weight or rate of weight gain vs control ([9]; injection and two-week post-injection period): no statistically significant difference in weight or rate of weight gain | microscopic examination of tissues vs control ([9]; necropsy on 28th day): no differences between the tissues | weights of major organs vs control ([9]; sacrificed on 28th day): no differences observed between the weights of major organs | concentration that inhibited HFF cell growth [6]: 0.009 mM/L | effect on resting (nonreplicating) HFF cells [10]: no effect on the resting cells was observed | concentration that inhibited BGM cell growth [7]: 0.009 mM/L | minimal inhibitory concentration [11]: 2.33 mM/L | minimal inhibitory concentration [12]: 23.3 mM/L | minimal inhibitory concentration [13]: 2.33 mM/L | minimal inhibitory concentration [14]: 23.3 mM/L | minimal inhibitory concentration [15]: 23.3 mM/L | minimum inhibitory concentration [16]: ≤ 0.233 mM/L | minimum inhibitory concentration [17]: 0.3 mM/L | minimum inhibitory concentration [18]: 0.3 mM/L | minimum inhibitory concentration [19]: 0.15 mM/L | minimum inhibitory concentration [20]: 0.15 mM/L | minimum inhibitory concentration [21]: 0.3 mM/L | minimum inhibitory concentration [22]: 0.15 mM/L | minimum inhibitory concentration [23]: 0.15 mM/L | antioxidant activity [24]: antioxidant activity similar to the commonly used food antioxidant butylated hdryoxyanisole (BHA)

CCOC(=O)CN1CCN(CC(=O)OCC)CCN(CC(=O)OCC)CC1 [Example 1.3.6.13, N,N′,N″-Tris(ethoxycarbonylmethyl)-1,4,7-triazacyclononane]
concentration that inhibited HFF cell growth [6]: 0.16 mM/L | concentration that inhibited BGM cell growth [7]: 0.04 mM/L

CC(C)(C)c1ccc(O)c(CN2CCN(Cc3cc(C(C)(C)C)ccc3O)CCN(Cc3cc(C(C)(C)C)ccc3O)CC2)c1 [N,N′,N″-tris(5-t-butyl-2-hydroxy-benzyl)-1,4,7-triazacyclononane]
IC50 [25]: 110 µM | EC50 [26]: 3 µM

O=C(O)CN1CCN(CC(=O)O)CCN(CC(=O)O)CC1 [Example 1.3.6.1, N,N′,N″-Tris(carboxymethyl)-1,4,7-triazacyclononane]
concentration that inhibited HFF cell growth [6]: 0.019 mM/L | concentration that inhibited BGM cell growth [7]: 0.009 mM/L

CN1CCN(CP(=O)(O)O)CCN(CP(=O)(O)O)CC1 [N-methyl-N′,N″-bis(dihydroxyphorylmethyl)-1,4,7-triazacyclononane]
relative sensitivity of cancer cell groups [27]: leukemia and colon cancer cells were more sensitive to the agent than were other cancer cells

salts of N,N′,N″-tri(dihydroxyphosphoryl methyl)-1,4,7-triazacyclononane
concentration that inhibited enzymatic action of MMP-2 [28]: less than 10 microM | concentration with no adverse effects on the heart ([29]; before or after hypoxia/reperfusion injury): ≥ 7200 µM | concentration in the perfusing medium effective in improving myocardial functional parameters and decreasing the incidence of ventricular fibrillation ([29]; ischemic/reperfused isolated working rat heart): ≤ 0.1 mM

Reference: US6387891B2, “COMPOUNDS WITH CHELATION AFFINITY AND SELECTIVITY FOR FIRST TRANSITION SERIES ELEMENTS AND THEIR USE IN COSMETICS AND PERSONAL CARE PRODUCTS, INHIBITION OF METALLOENZYMES, AND INHIBITION OF REPERFUSION INJURY” (Concat, Ltd., priority 2000, dated 2002)
